The text below walks through data of US11414454B2, “Compositions, methods, and systems for affinity-based protein identification and purification” (Auctus Biologies, Inc., priority 2017, dated 2022).

In one experiment the target is RPtag (large). Put plainly: Fluorescence anisotropy Kd of rhodamine labeled RPtag (small) peptides for RPtag (large). The class given is binding, Thermoanaerobacter tengcongensis. The method, boiled down: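 N-terminally rhodamine-labeled RPtag small (50 nM or 1 nM) titrated with RPtag large in 50 mM Tris pH 8.0 with 0.005% Tween 20, 5 min to 1 h at room temperature; BSA served as non-specific binding control. Kd from fitting fluorescence anisotropy to a quadratic binding equation accounting for labeled peptide concentration.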
For orientation: Fluorescence polarisation rises when a labelled molecule tumbles more slowly, as on binding a larger partner.

Experiment [1] concerns RPtag large with rhodamine labeled PDGF-β n-terminal peptide. Put plainly: Competition of RPtag large / PDGF-β n-terminal peptide binding by unlabeled peptide. The following applies: 1 uM RPtag large, 1 uM labeled PDGF-β peptide, unlabeled competitor. The procedure: An initial Kd was measured between RPtag(large) and the PDGF-β N-terminal peptide (FIG. 16). […] Next, competition experiments were performed using the mutant RPtag(small) peptide Nd2,P5A,E18A.
The direct binding (left) and competition studies (right) presented in FIG. 16 were performed as follows. The indicated concentration of RPtag large was incubated with 20 nM rhodamine labeled PDGF-β n-terminal peptide for 1 h at room temperature, and the fluorescence anisotropy was measured. The curves were fit with the equation f=y0+(ymax−y0)*(Ptot+x+Kd−sqrt((Ptot+x+Kd)^2−4*Ptot*x))/(2*Ptot), where y0 is the baseline anisotropy, ymax is the maximum anisotropy, Ptot is the fixed concentration of labeled peptide used, x is the variable concentration of protein used, and Kd is the measured Kd. […] The curves were fit empirically to a 4 parameter logistic regression. In both cases, the buffer was 50 mM Tris pH 8.0, 0.005% Tween20. Curves were fit in […] each, and the data was averaged for display. Points are mean±SEM (n=3).

Another experiment concerns RPtag (large) resin. Put plainly: Affinity-based precipitation/pull-down with RPtag (large) resin. Type of experiment: binding, Thermoanaerobacter tengcongensis. The following applies: 7 sequential pulldowns, 6 M guanidine hydrochloride washes. The protocol:
The disclosed proteins and peptides were used in precipitation/pull-down assays. Specifically, rhodamine was tagged with the RPtag(small) Nd8Cd4 peptide and RPtag(large) was immobilized on a resin, as described above.
Briefly, 100 μL 1000 nM rhodamine labeled RPtag(small) peptide was incubated with 2.5 uL wet settled RPtag (large) resin generated as (as described above) in phosphate buffered saline (PBS; Gibco)+1% BSA+0.005% Tween 20 at 4° C. for 60 min with continuous orbital shaking. Samples were then washed 3× with 500 μL of the same buffer with no peptide to remove unbound peptide. Bound RPtag(small) peptides were then eluted with 100 μL 100 mM glycine pH 1.5+0.005% Tween20, and the pH raised by adding 1 μL 1 M borate pH 10.0. The amount eluted was calculated from the blank subtracted fluorescence of the elution versus the load. After each elution, resin was washed once with 500 μL 6M GdnHCl and once with 500 μL phosphate buffered saline (Gibco)+1% BSA+0.005% Tween 20, before repeating the assay.
Sequential precipitation/pulldown trials were performed with the rhodamine labelled RPtag(small) Nd8Cd4 peptide, and the RPtag(large)-resin. After binding and pull-down, the rhodamine-peptide was eluted in 100 mM glycine pH 1.5, the column was washed with water and 6 M guanidine hydrochloride, and then re-equilibrated with buffer (50 mM Tris pH 8.0, 10 mM EDTA). […]

Where [2] appears, read: N-terminal rhodamine tagged peptide, unlabeled RPtag (large), 50 mM Tris pH 8.0, 0.005% Tween 20, mean ± SE.

Read-outs that look alike come from different tables or passages of the source. No end group written: not given here.

For orientation: Kd means a measure of binding affinity in units of concentration. For the sequence “KIANFIPAELKLITKANVQ [Nd2, p5a, e18a, KIANFIPAELKLITKANVQ]”, the equilibrium dissociation constant (Kd) at RPtag (large) is roughly 0.047 nM; at RPtag (large) (setting [2]) it was 0.047 ± 0.018 nM. The “disruption of RPtag(large) binding to PDGF-β N-terminal peptide” value in experiment [1] was “could be disrupted”.

Consider PAELKLITK [Nd8, Cd4, PAELKLITK], for which the dissociation constant Kd was 14 ± 1 nM at RPtag (large) (setting [2]) and roughly 14 nM on RPtag (large) (N-terminal rhodamine tagged peptide, unlabeled RPtag (large), 50 mM Tris pH 8.0, 0.005% Tween 20, mean ± SE, listed as Nd8Cd4). Besides, in the experiment on RPtag (large) resin, the “binding capacity over sequential pulldowns” value was “little to no loss of binding capacity”.
